Values quoted from earlier work in patent US20080241076A1, “Method and composition for increasing Erythropoietin” (priority 2007, published 2008).

Legend:
[1] = test system: kidney production of EPO; conditions: dog kidneys; substances given separately
[2] = in-vitro, 14C-labeled
[3] = test system: erythrocyte; conditions: Carnitine supplementation
[4] = test system: RBC
[5] = test system: hemoglobin levels; conditions: hemodialysis patients
[6] = test system: responsiveness to EPO; conditions: in vivo
[7] = human, in vivo
[8] = test system: renal EPO production; conditions: animal studies
[9] = test system: endogenous glutathione
[10] = test system: erythrocyte 2,3-bisphosphoglycerate (2,3-BPG); conditions: following phosphate loading
[11] = test system: induced clots; conditions: dogs with induced clots
[12] = test system: blood flow; conditions: animal study
[13] = test system: blood clots; conditions: human trials, feeding

## CCCCC/C=C\C/C=C\C/C=C\C/C=C\CCCC(=O)O [Arachidonic Acid, all-cis-5,8,11,14-eicossatetraenoic acid]
[1]
  kidney production of EPO: increased
[2]
  prostaglandins produced from Arachidonic acid: PGD2, PGE2, PGF2 alpha and 6-keto-PGF1 alpha

## C[N+](C)(C)CC(O)CC(=O)[O-] (stereo not drawn) [Carnitine]
[3]
  erythrocyte survival time: increase

## CCCCC[C@H](O)/C=C/[C@H]1[C@H](O)CC(=O)[C@@H]1C/C=C\CCCC(=O)O [PGE2, reference compound]
[1]
  kidney production of EPO: increased
[4]
  iron incorporation in RBC: significant increase

## O=C1O[C@H]([C@@H](O)CO)C(O)=C1O [Vitamin C]
[5]
  hemoglobin levels: significant increases
[6]
  responsiveness to EPO: improve

## [Se] [selenium]
[7]
  elemental concentration in whole blood and plasma: significant increase

## Vitamin A
[8]
  renal EPO production: increase

## Vitamin E
[9]
  endogenous glutathione: stabilize

## phosphate
[10]
  erythrocyte 2,3-BPG: significant increase

B1: Nattokinase: potent fibrinolytic enzyme extracted from a Japanese food called Natto (protein, UniProt P35835 107-381, looked up)
Subtilisin NAT: AQSVPYGISQIKAPALHSQGYTGSNVKVAVIDSGIDSSHPDLNVRGGASFVPSETNPYQDGSSHGTHVAGTIAALNNSIGVLGVAPSASLYAVKVLDSTGSGQYSWIINGIEWAISNNMDVINMSLGGPTGSTALKTVVDKAVSSGIVVAAAAGNEGSSGSTSTVGYPAKYPSTIAVGAVNSSNQRASFSSVGSELDVMAPGVSIQSTLPGGTYGAYNGTSMATPHVAGAAALILSKHPTWTNAQVRDRLESTATYLGNSFYYGKGLINVQAAAQ
[11]
  time to regain normal blood circulation: within five hours
[12]
  regain in blood flow: 62%
[13]
  ability to dissolve blood clots: heightened ability to dissolve blood clots

B2: plasmin: the body's natural fibrinolytic enzyme (protein, UniProt P00747 20-580; P00747 581-810, looked up)
Plasmin heavy chain A: EPLDDYVNTQGASLFSVTKKQLGAGSIEECAAKCEEDEEFTCRAFQYHSKEQQCVIMAENRKSSIIIRMRDVVLFEKKVYLSECKTGNGKNYRGTMSKTKNGITCQKWSSTSPHRPRFSPATHPSEGLEENYCRNPDNDPQGPWCYTTDPEKRYDYCDILECEEECMHCSGENYDGKISKTMSGLECQAWDSQSPHAHGYIPSKFPNKNLKKNYCRNPDRELRPWCFTTDPNKRWELCDIPRCTTPPPSSGPTYQCLKGTGENYRGNVAVTVSGHTCQHWSAQTPHTHNRTPENFPCKNLDENYCRNPDGKRAPWCHTTNSQVRWEYCKIPSCDSSPVSTEQLAPTAPPELTPVVQDCYHGDGQSYRGTSSTTTTGKKCQSWSSMTPHRHQKTPENYPNAGLTMNYCRNPDADKGPWCFTTDPSVRWEYCNLKKCSGTEASVVAPPPVVLLPDVETPSEEDCMFGNGKGYRGKRATTVTGTPCQDWAAQEPHRHSIFTPETNPRAGLEKNYCRNPDGDVGGPWCYTTNPRKLYDYCDVPQCAAPSFDCGKPQVEPKKCPGR
Plasmin light chain B: VVGGCVAHPHSWPWQVSLRTRFGMHFCGGTLISPEWVLTAAHCLEKSPRPSSYKVILGAHQEVNLEPHVQEIEVSRLFLEPTRKDIALLKLSSPAVITDKVIPACLPSPNYVVADRTECFITGWGETQGTFGAGLLKEAQLPVIENKVCNRYEFLNGRVQSTELCAGHLAGGTDSCQGDSGGPLVCFEKDKYILQGVTSWGLGCARPNKPGVYVRVSRFVTWIEGVMRNN
modifications: plasmin
notes: the body's natural fibrinolytic enzyme
[12]
  regain in blood flow: 15.8%
